According to patent US7556938B1, “Nucleic acids encoding potassium channel interactors” (Millennium Pharmaceuticals, Inc., priority 1998, dated 2009):

Biological target: T1, Kv4.3/KChIP1 (Rattus norvegicus, UniProt Q62897)
T1 sequence (Q62897 1-655): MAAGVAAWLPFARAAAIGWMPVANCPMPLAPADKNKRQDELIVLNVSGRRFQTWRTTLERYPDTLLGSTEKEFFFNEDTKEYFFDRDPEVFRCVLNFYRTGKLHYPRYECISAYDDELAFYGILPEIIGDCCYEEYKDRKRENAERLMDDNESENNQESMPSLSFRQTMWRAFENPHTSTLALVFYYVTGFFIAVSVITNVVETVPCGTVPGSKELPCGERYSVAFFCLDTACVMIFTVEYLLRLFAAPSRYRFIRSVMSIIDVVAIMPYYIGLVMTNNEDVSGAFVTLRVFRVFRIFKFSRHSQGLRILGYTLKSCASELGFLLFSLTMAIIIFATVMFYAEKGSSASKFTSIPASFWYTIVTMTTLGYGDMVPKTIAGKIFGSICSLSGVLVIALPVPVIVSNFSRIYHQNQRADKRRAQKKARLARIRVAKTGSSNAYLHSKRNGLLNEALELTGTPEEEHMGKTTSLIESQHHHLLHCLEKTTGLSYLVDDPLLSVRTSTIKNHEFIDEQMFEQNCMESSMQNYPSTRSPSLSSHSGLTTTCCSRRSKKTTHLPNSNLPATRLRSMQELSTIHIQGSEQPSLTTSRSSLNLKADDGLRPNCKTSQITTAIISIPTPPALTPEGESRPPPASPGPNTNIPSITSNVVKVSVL
T1 sequence (Q8R426 1-216 isoform Q8R426-2 partner): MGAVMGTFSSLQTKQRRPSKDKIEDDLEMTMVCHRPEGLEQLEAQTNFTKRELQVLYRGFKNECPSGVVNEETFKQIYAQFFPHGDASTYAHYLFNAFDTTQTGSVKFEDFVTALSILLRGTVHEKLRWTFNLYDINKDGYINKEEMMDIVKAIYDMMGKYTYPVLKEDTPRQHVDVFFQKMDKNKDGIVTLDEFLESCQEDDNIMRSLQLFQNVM
Experiment: Fatty acid modulation of Kv4.3/KChIP1 current in Xenopus oocytes
Type: cell-based
Protocol: Frogs underwent no more than two surgeries and surgeries were performed by well established techniques. Frogs were anesthetized with ice. Total cRNA (1-10 ng) was injected into stage IV Xenopus oocytes that were harvested the previous day. The Xenopus oocytes were incubated in ND96 containing (in mM) 96 NaCl, 2 KCl, 1.8 CaCl2, 1 MgCl2, 5 HEPES, pH 7.6, plus (Gentamycin 50 μg/ml) at 18° C. Xenopus oocytes were studied 3-7 days after injection. The two-electrode voltage-clamp recordings were performed in ND96 solution using a TURBO TEC 03 Clamp Amplifier (ALA Scientific Instruments, Westbury, N.Y.). Both electrodes were filled with 3 M KCl and had electrode resistances ranging from 0.2-1 MOhm. The current signals were filtered at 1000 Hz before transferred on a PC (Gateway, Calif.) using the PULSE software (HEKA, Germany). In this Example, the hypothesis that […] were the missing auxiliary subunits that accounted for the above kinetic discrepancy was investigated by expressing Kv4 alone or together with […] in both CHO cells and Xenopus oocytes, and measuring their inactivation time constants (using art known techniques as described in, for example, An et al. (2000) Nature 403:553-6; Keros, S. and […]. Neuroscience 17: 3476-87; and Villarroel, A. and […]. Neuroscience 16:2522-32). The effects of different concentrations of arachidonic acid on Kv4/KChIP current was studied in Xenopus oocytes. Because the physiological concentrations of arachidonic acid are often under 10 μM (Needleman, et al., 1986 Annu Rev Biochem 55:69-102; Anderson and Welsh, 1990, Proc Natl Acad Sci USA 87:7334-8; Meves, 1994, Prog Neurobiol 43:175-86), arachidonic acid was tested in the 1-10 μM range. […] Further, the slope of amplitude reduction as a function of increasing concentrations was very similar with or without the presence of […]. […] Villarroel and Schwarz, (1996) J.

[1] = Kv4.3/KChIP1, 10 μM AA, listed as AA

SMILES: CCCCC/C=C\C/C=C\C/C=C\C/C=C\CCCC(=O)O [arachidonic acid]
- Inactivation time constant (ms ± SEM) [1]: 55 ± 4 ms
- Peak amplitude (μA ± SEM) [1]: 21±4 μA
- block of Kv4.3 peak amplitude (Kv4.3/KChIP1, 10 μM fatty acid, vs no-fatty acid control): inhibited significantly
- block of Kv4.3 peak amplitude (Kv4.3/KChIP1, 1-10 μM arachidonic acid): concentration-dependent block
- effect on Kv4.3 inactivation time constant (Kv4.3 co-expressed with KChIP1, 10 μM fatty acid): reduced Kv4.3 inactivation time constant
- effect on inactivation time constant (presence of KChIP1, 1-10 μM arachidonic acid): decreased in a concentration-dependent manner
